This is an account of results in patent US9434743B2, “Indazole derivatives” (TAKEDA PHARMACEUTICAL COMPANY LIMITED, priority 2012, dated 2016).

Experiment [1] addresses T1, human MetAP2 enzyme (Homo sapiens, UniProt P50579). Nature of the experiment: MetAP2 enzyme assay, enzyme complexed with cobalt ions. As to conditions: MetAP2 Co pIC50, MetAP2 enzyme complexed with cobalt ions; Met-AMC substrate at Km.
Method: DNA encoding the full-length sequence of human MetAP2 enzyme is amplified by PCR and cloned into a pFastBac expression vector (Invitrogen). Recombinant baculovirus incorporating the MetAP2 construct is generated by transposition using the Bac-to-Bac system (Invitrogen). The expression of recombinant protein is carried out by infection of Spodoptera frugiperda Sf9 cells (Invitrogen) in 5 L Wave Bioreactors (Wave Biotech). Recombinant protein is isolated from cellular extracts by binding to an SP Hitrap Fast Flow or SP Sepharose (Sigma) column, and the protein is eluted using a NaCl gradient. Partially purified extracts of MetAP2 are further purified by an AKTA FPLC over a Superdex-200 column (GE). The purity of MetAP2 protein is determined on denaturing SDS-PAGE gel.
The results for each well are expressed as percent inhibition and calculated using the equation:
For experiment [2], the target named is T1, human MetAP2 enzyme. Nature of the experiment: MetAP2 enzyme assay, enzyme complexed with manganese ions. As to conditions: MetAP2 Mn pIC50, MetAP2 enzyme complexed with manganese ions; Met-AMC substrate at Km.

T1 sequence (P50579 whole entry): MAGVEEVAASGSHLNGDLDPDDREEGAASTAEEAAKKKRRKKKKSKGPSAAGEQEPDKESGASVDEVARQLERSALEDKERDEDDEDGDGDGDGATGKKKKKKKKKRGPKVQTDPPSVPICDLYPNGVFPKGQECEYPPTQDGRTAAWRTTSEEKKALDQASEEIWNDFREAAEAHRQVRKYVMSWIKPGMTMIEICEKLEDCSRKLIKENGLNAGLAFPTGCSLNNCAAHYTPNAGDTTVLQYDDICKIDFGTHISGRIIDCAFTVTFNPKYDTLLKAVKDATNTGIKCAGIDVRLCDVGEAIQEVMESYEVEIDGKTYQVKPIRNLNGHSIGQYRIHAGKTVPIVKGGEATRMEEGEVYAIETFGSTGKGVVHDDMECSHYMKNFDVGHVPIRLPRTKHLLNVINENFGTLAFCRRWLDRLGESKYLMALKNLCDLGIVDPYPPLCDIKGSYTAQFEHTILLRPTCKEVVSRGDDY

As for `Cn1cc(-c2cc(C(F)(F)F)cc3[nH]ncc23)ccc1=O` [Example 373, 1-methyl-5-(6-(trifluoromethyl)-1H-indazol-4-yl)pyridin-2(1H)-one], the figures for the half-maximal inhibitory concentration (IC50) on human MetAP2 enzyme [1] and at human MetAP2 enzyme [2] were 126 nM and 6.31 nM, respectively.

With `Cc1nn(CC(N)=O)cc1-c1cc(C(F)(F)F)cc2[nH]ncc12` [Example 274, 2-(3-methyl-4-(6-(trifluoromethyl)-1H-indazol-4-yl)-1H-pyrazol-1-yl)acetamide], the IC50 was 63.1 nM at human MetAP2 enzyme [1] and 3.98 nM on human MetAP2 enzyme [2].

Turning to `Cn1cc(-c2cc(C(F)(F)F)cc3[nH]ncc23)c(=O)n(CC(=O)N2CCOCC2)c1=O` [Example 310, 1-methyl-3-(2-morpholino-2-oxoethyl)-5-(6-(trifluoromethyl)-1H-indazol-4-yl)pyrimidine-2,4(1H,3H)-dione], the results for the concentration for half-maximal inhibition (IC50) at human MetAP2 enzyme [1] and at human MetAP2 enzyme [2] were 1000 nM and 20 nM, respectively.

With `FC(F)(F)c1cc(-c2cccc3cccnc23)c2cn[nH]c2c1` [Example 31, 8-(6-(trifluoromethyl)-1H-indazol-4-yl)quinoline], the IC50 against human MetAP2 enzyme [1] was 200 nM; against human MetAP2 enzyme [2], 15.8 nM.

Turning to `NS(=O)(=O)c1ccc(-c2cc(C(F)(F)F)cc3[nH]ncc23)cn1` [Example 345, 5-(6-(trifluoromethyl)-1H-indazol-4-yl)pyridine-2-sulfonamide], the IC50 at human MetAP2 enzyme [1] was 100 nM; against human MetAP2 enzyme [2], 5.01 nM.

For the molecule `Cn1cc(C(=O)NC2CC2)cc(-c2cc(C(F)(F)F)cc3[nH]ncc23)c1=O` [Example 357, N-cyclopropyl-1-methyl-6-oxo-5-(6-(trifluoromethyl)-1H-indazol-4-yl)-1,6-dihydropyridine-3-carboxamide], the concentration for half-maximal inhibition (IC50) against human MetAP2 enzyme [1] was 200 nM; against human MetAP2 enzyme [2], 7.94 nM.

Regarding `OCc1cncc(-c2cc(C(F)(F)F)cc3[nH]ncc23)c1` [Example 29, (5-(6-(trifluoromethyl)-1H-indazol-4-yl)pyridin-3-yl)methanol], the IC50 at human MetAP2 enzyme [1] was 79.4 nM; on human MetAP2 enzyme [2] it was 6.31 nM.

Turning to `Fc1cnc2[nH]ccc2c1-c1cc(C(F)(F)F)cc2[nH]ncc12` [Example 66, 4-(5-fluoro-1H-pyrrolo[2,3-b]pyridin-4-yl)-6-(trifluoromethyl)-1H-indazole], the IC50 at human MetAP2 enzyme [1] was 79.4 nM; against human MetAP2 enzyme [2], 15.8 nM.

Turning to `O=C(NCCO)c1ncc(-c2cc(C(F)(F)F)cc3[nH]ncc23)cn1` [Example 286, N-(2-hydroxyethyl)-5-(6-(trifluoromethyl)-1H-indazol-4-yl)pyrimidine-2-carboxamide], the half-inhibitory concentration (IC50) is 200 nM against human MetAP2 enzyme [1] and 7.94 nM against human MetAP2 enzyme [2].

In the case of `Cc1nn(Cc2cnn(C)c2)c(CO)c1-c1cc(C(F)(F)F)cc2[nH]ncc12` [Example 410, (3-methyl-1-((1-methyl-1H-pyrazol-4-yl)methyl)-4-(6-(trifluoromethyl)-1H-indazol-4-yl)-1H-pyrazol-5-yl)methanol], the IC50 against human MetAP2 enzyme [1] is 15.8 nM; on human MetAP2 enzyme [2], 6.31 nM.

Regarding `Nc1ncccc1-c1cc(C(F)(F)F)cc2[nH]ncc12` [Example 78, 3-(6-(trifluoromethyl)-1H-indazol-4-yl)pyridin-2-amine], the values for the half-inhibitory concentration (IC50) against human MetAP2 enzyme [1] and at human MetAP2 enzyme [2] were 100 nM and 5.01 nM, respectively.

Turning to `CNC(=O)c1ccc(OC)c(-c2cc(C(F)(F)F)cc3[nH]ncc23)c1` [Example 181, 4-methoxy-N-methyl-3-(6-(trifluoromethyl)-1H-indazol-4-yl)benzamide], the concentration for half-maximal inhibition (IC50) on human MetAP2 enzyme [1] is 15.8 nM; at human MetAP2 enzyme [2], 5.01 nM.

In the case of `N#CCOc1ccccc1-c1cc(C(F)(F)F)cc2[nH]ncc12` [Example 93, 2-(2-(6-(trifluoromethyl)-1H-indazol-4-yl)phenoxy)acetonitrile], the values for the IC50 against human MetAP2 enzyme [1] and against human MetAP2 enzyme [2] were 50.1 nM and 10 nM, respectively.

For the molecule `Nc1ncc(Cl)cc1-c1cc(C(F)(F)F)cc2[nH]ncc12` [Example 137, 5-chloro-3-(6-(trifluoromethyl)-1H-indazol-4-yl)pyridin-2-amine], the IC50 is 158 nM on human MetAP2 enzyme [1] and 10 nM on human MetAP2 enzyme [2].

As for `CS(=O)(=O)NCc1ccc(-c2cc(C(F)(F)F)cc3[nH]ncc23)cc1` [Example 95, N-(4-(6-(trifluoromethyl)-1H-indazol-4-yl)benzyl)methanesulfonamide], the IC50 against human MetAP2 enzyme [1] is 20 nM; against human MetAP2 enzyme [2], 3.16 nM.

Regarding `COc1ccc(CC(=O)NCCO)cc1-c1cc(C(F)(F)F)cc2[nH]ncc12` [Example 320, N-(2-hydroxyethyl)-2-(4-methoxy-3-(6-(trifluoromethyl)-1H-indazol-4-yl)phenyl)acetamide], the concentration for half-maximal inhibition (IC50) against human MetAP2 enzyme [1] was 25.1 nM; at human MetAP2 enzyme [2] it was 15.8 nM.

`FC(F)(F)c1cc(-c2cnc3[nH]ncc3c2)c2cn[nH]c2c1` [Example 243, 5-(6-(trifluoromethyl)-1H-indazol-4-yl)-1H-pyrazolo[3,4-b]pyridine]: the half-maximal inhibitory concentration (IC50) against human MetAP2 enzyme [1] is 39.8 nM; against human MetAP2 enzyme [2], 5.01 nM.

With `OCCn1cc(-c2cc(C(F)(F)F)cc3[nH]ncc23)cn1` [Example 349, 2-(4-(6-(trifluoromethyl)-1H-indazol-4-yl)-1H-pyrazol-1-yl)ethanol], the IC50 at human MetAP2 enzyme [1] is 100 nM; on human MetAP2 enzyme [2] it was 6.31 nM.

In the case of `C[C@H](O)CNC(=O)c1c[nH]c(=O)c(-c2cc(C(F)(F)F)cc3[nH]ncc23)c1` [Example 335, (S)—N-(2-hydroxypropyl)-6-oxo-5-(6-(trifluoromethyl)-1H-indazol-4-yl)-1,6-dihydropyridine-3-carboxamide], the IC50 was 631 nM at human MetAP2 enzyme [1] and 15.8 nM at human MetAP2 enzyme [2].

Turning to `FC(F)(F)c1cc(-c2c[nH]c3nccnc23)c2cn[nH]c2c1` [Example 157, 7-(6-(trifluoromethyl)-1H-indazol-4-yl)-5H-pyrrolo[2,3-b]pyrazine], the IC50 against human MetAP2 enzyme [1] is 251 nM; against human MetAP2 enzyme [2], 12.6 nM.

Regarding `CCCOc1ncccc1-c1cc(C(F)(F)F)cc2[nH]ncc12` [Example 134, 4-(2-propoxypyridin-3-yl)-6-(trifluoromethyl)-1H-indazole], the IC50 against human MetAP2 enzyme [1] was 100 nM; at human MetAP2 enzyme [2], 25.1 nM.

As for `Cc1nc2cc(-c3cc(C(F)(F)F)cc4[nH]ncc34)cnc2[nH]1` [Example 341, 2-methyl-6-(6-(trifluoromethyl)-1H-indazol-4-yl)-3H-imidazo[4,5-b]pyridine], the half-inhibitory concentration (IC50) against human MetAP2 enzyme [1] is 15.8 nM; against human MetAP2 enzyme [2], 7.94 nM.

With `FC(F)(F)c1cc(-c2cccnc2OCc2ccccc2)c2cn[nH]c2c1` [Example 99, 4-(2-(benzyloxy)pyridin-3-yl)-6-(trifluoromethyl)-1H-indazole], the IC50 is 631 nM against human MetAP2 enzyme [1] and 39.8 nM on human MetAP2 enzyme [2].

On to `Cn1c(-c2cc(C(F)(F)F)cc3[nH]ncc23)cc2ccccc21` [Example 51, 4-(1-methyl-1H-indol-2-yl)-6-(trifluoromethyl)-1H-indazole], for which the results for the IC50 against human MetAP2 enzyme [1] and against human MetAP2 enzyme [2] were 2510 nM and 100 nM, respectively.

As to `Cc1nc(N2C[C@H]3C[C@H]3C2C(N)=O)ncc1-c1cc(C(F)(F)F)cc2[nH]ncc12` (stereo partly drawn) [Example 415, (1R,5S)-3-(4-methyl-5-(6-(trifluoromethyl)-1H-indazol-4-yl)pyrimidin-2-yl)-3-azabicyclo[3.1.0]hexane-2-carboxamide], the IC50 is 10 nM against human MetAP2 enzyme [1] and 7.94 nM against human MetAP2 enzyme [2].

On to `COc1ccc(C(=O)N(C)C)cc1-c1cc(C(F)(F)F)cc2[nH]ncc12` [Example 272, 4-methoxy-N,N-dimethyl-3-(6-(trifluoromethyl)-1H-indazol-4-yl)benzamide], for which the values for the half-maximal inhibitory concentration (IC50) on human MetAP2 enzyme [1] and at human MetAP2 enzyme [2] were 39.8 nM and 10 nM, respectively.
